This passage reports EC50 results from BindingDB's records for doi:10.7270/Q24T6GTZ (Burnham Center For Chemical Genomics, 2010).

The target in this experiment is Kappa-type opioid receptor (Homo sapiens, UniProt P41145). As to the kind of experiment: KOR agonist analogs, imaging readout, SAR follow-up, image-based (AID 2359).
Chain of Kappa-type opioid receptor (P41145 whole entry): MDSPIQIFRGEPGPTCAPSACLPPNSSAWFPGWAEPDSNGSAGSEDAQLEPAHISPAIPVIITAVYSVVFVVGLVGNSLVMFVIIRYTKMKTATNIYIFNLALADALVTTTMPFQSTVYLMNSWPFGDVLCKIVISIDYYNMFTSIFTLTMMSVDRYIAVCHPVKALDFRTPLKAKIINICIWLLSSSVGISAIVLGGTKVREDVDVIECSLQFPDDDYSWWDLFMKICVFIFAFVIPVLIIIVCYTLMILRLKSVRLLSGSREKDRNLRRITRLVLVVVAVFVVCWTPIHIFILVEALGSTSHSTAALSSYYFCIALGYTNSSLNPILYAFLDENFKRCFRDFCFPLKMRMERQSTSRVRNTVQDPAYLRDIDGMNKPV

As for `Oc1ccc(CN=Nc2ccnc3cc(Cl)ccc23)cc1O` [(4Z)-4-[[2-(7-chloroquinolin-4-yl)hydrazinyl]methylidene]-2-hydroxycyclohexa-2,5-dien-1-one], the EC50 was more than 32 µM. On to `CCC(N=Nc1ccnc2cc(Cl)ccc12)c1ccc(O)cc1` (configuration not stated) [4-[1-[2-(7-chloroquinolin-4-yl)hydrazinyl]propylidene]cyclohexa-2,5-dien-1-one], for which the EC50 is more than 32 µM.
